Test results: paper PMC7961587, “Novel Cell Permeable Polymers of N-Substituted L-2,3-Diaminopropionic Acid (DAPEGs) and Cellular Consequences of Their Interactions with Nucleic Acids” (International Journal of Molecular Sciences, 2021)
Square brackets hold non-standard residues; d marks the D form. Peptide text beside a SMILES is read from it. * marks the point of attachment. 5FAM = O=C1OC2(c3ccc(O)cc3Oc3cc(O)ccc32)c2ccc(C(=O)*)cc21; Acetyl(2-(HOCH2CH2OCH2CH2O)) = O=C(COCCOCCO)*; Dap = NC[C@H](N)C(=O)O; AEEA = NCCOCCOCC(=O)O

Assays:
HB2 and MDA-MB-231 cells = assay: Cell permeability and localization by fluorescence microscopy; type: cell-based, human; settings: for Cell membrane crossing and localization, in words: 10 µM, fluorescence microscopy, HB2 or MDA-MB-231 cells; for Cell Permeablility (Target): cellular localization: fluorescence microscope Olympus IX51, 10 µM fluorescently labeled compound, DAPI nucleus staining
Text: Preliminary cell permeability experiments facilitated the identification of three groups of compounds. […] The first group includes compound 4 and its derivatives (4a and 4b) and the family of compound 5 (5a and 5b). Compounds 4 and 5 are similar in structure and are composed of six residues of diaminopropionic acid (Dap) decorated with side chains of different lengths, terminating with the same highly positive guanidine moiety. […] Both compounds display unique cellular localization. […] We believe that such effective nuclear localisation of the first group of tested compounds is due to the effective mimicking of the nuclear localisation sequence (NLS). Such sequence consists of several positively charged lysines or arginines present in the protein structure. Additionally, side chain length of the polymer molecules seems to be a crucial factor that is optimal for compounds belonging to first group of polymers.
HB2 and MDA-MB-231 cells were seeded on 24-well plates at a density 1.5 × 10^4/well and 4 × 10^4/well, respectively, and incubated in 0.5 mL complete medium for 48 h. Subsequently, cells were washed with phosphate-buffered saline (PBS), and fresh medium with a fluorescently labeled peptide was added to each well at a concentration of 10 µM. For nucleus staining a DAPI solution (ThermoFisher Scientific, Waltham, MA, USA, […] R37606) in PBS was employed in conditions recommended by the supplier. After the incubation (2 h or 24 h), cells were washed thoroughly with PBS, and then a phenol red-free culture medium (FluoroBrite, DMEM) was added. Subsequently, the cells were examined using an Olympus IX51 fluorescence microscope (Olympus, Tokyo, Japan) using appropriate filters: blue for DAPI, green for FITC, and red TAMRA. Next, the images were merged and colocalization of the dyes’ emission were analyzed.

[1] = system: MDA-MB-231 or HB-2 cell lines; assay: Cytotoxicity assay: MTT; type: cell-based, human; settings: 10 µM; MTT, Figure S2; HB-2 and MDA-MB-231
Experimental: Cell viability against cell-penetrating compounds was detected by the MTT assay. The HB2 and MDA-MB-231 cells were seeded into 96-well plates at a density of 5 × 10^3/well and 7 × 10^3/well, respectively, and incubated in complete medium (100 µL/well) for 48 h. […] Cells incubated in media without any test compounds were used as control. After incubation, medium containing test compounds was removed, and 225 µL fresh medium with 25 µL 3-(4,5-dimethylthiazol-2-yl)-2,5-diphenyltetrazolium bromide (MTT) was added (0.5 mg/mL per well). After incubation at 37 °C for 4 h, supernatants were removed, and the formazan crystals were dissolved overnight with dimethyl sulfoxide (DMSO; 150 µL/well). Results were analyzed using a microplate reader (SPECTROstar Nano, BMG LABTECH, Ortenberg, Germany) at 570 nm and 690 nm.

Compound | Cell membrane crossing and localization, in words (HB2 and MDA-MB-231 cells) | Cell Permeablility (Target): cellular localization (HB2 and MDA-MB-231 cells) | Cytotoxicity at the concentration used in the cell experiments, in words [1]
5′,6-FAM -O2Oc-(D-arg)6-O2Oc-NH2 [2a] | partially visible in the cytoplasm in the form of granules | cytoplasm | slightly cytotoxic
NCCOCCOCC(=O)NC[C@H](NC(=O)COCCOCCNC(=O)c1ccc2c(c1)C(=O)OC21c2ccc(O)cc2Oc2cc(O)ccc21)C(=O)N[C@@H](CNC(=O)COCCOCCN)C(=O)N[C@@H](CNC(=O)COCCOCCN)C(=O)N[C@@H](CNC(=O)COCCOCCN)C(=O)N[C@@H](CNC(=O)COCCOCCN)C(=O)N[C@@H](CNC(=O)COCCOCCN)C(=O)NCCOCCOCC(N)=O [8a, 5′,6-FAM-O2Oc-[Dap(O2)]6-O2Oc-NH2] ({5FAM-AEEA}-[Dap](AEEA)[Dap](AEEA)[Dap](AEEA)[Dap](AEEA)[Dap](AEEA)[Dap](AEEA)[AEEA]-NH2) | did not cross the cell membrane | – | –
NC(=O)COCCOCCNC(=O)[C@H](CNC(=O)COCCOCCO)NC(=O)[C@H](CNC(=O)COCCOCCO)NC(=O)[C@H](CNC(=O)COCCOCCO)NC(=O)[C@H](CNC(=O)COCCOCCO)NC(=O)[C@H](CNC(=O)COCCOCCO)NC(=O)[C@H](CNC(=O)COCCOCCO)NC(=O)COCCOCCNC(=O)c1ccc2c(c1)C(=O)OC21c2ccc(O)cc2Oc2cc(O)ccc21 [9a, 5′,6-FAM-O2Oc-[Dap(HO2)]6-O2Oc-NH2] ({5FAM-AEEA}-[Dap](Acetyl(2-(HOCH2CH2OCH2CH2O)))[Dap](Acetyl(2-(HOCH2CH2OCH2CH2O)))[Dap](Acetyl(2-(HOCH2CH2OCH2CH2O)))[Dap](Acetyl(2-(HOCH2CH2OCH2CH2O)))[Dap](Acetyl(2-(HOCH2CH2OCH2CH2O)))[Dap](Acetyl(2-(HOCH2CH2OCH2CH2O)))[AEEA]-NH2) | did not cross the cell membrane | – | –
5′,6-FAM -O2Oc-(Har)6-O2Oc-NH2 [3a] | partially visible in the cytoplasm in the form of granules | cytoplasm | slightly cytotoxic
N=C(N)NCCOCCOCC(=O)NC[C@H](NC(=O)COCCOCCNC(=O)c1ccc2c(c1)C(=O)OC21c2ccc(O)cc2Oc2cc(O)ccc21)C(=O)N[C@@H](CNC(=O)COCCOCCNC(=N)N)C(=O)N[C@@H](CNC(=O)COCCOCCNC(=N)N)C(=O)N[C@@H](CNC(=O)COCCOCCNC(=N)N)C(=O)N[C@@H](CNC(=O)COCCOCCNC(=N)N)C(=O)N[C@@H](CNC(=O)COCCOCCNC(=N)N)C(=O)N[C@@H](CNC(=O)COCCOCCNC(=N)N)C(=O)N[C@@H](CNC(=O)COCCOCCNC(=N)N)C(=O)NCCOCCOCC(N)=O [compound 14a, 5′,6-FAM-O2Oc-[Dap(GO2)]8-O2Oc-NH2] | efficiently penetrate the membrane and localized in the nucleus | nucleus | –
